In the NIST ThermoML archive (doi:10.1021/je0302001):

Assay: mn = molality of the nth substance listed, in mol/kg
Details: for speed of sound / mass density / viscosity: 101.3 kPa, Liquid; for surface tension liquid-gas: Ring tensiometer; for viscosity: Capillary tube (Ostwald / Ubbelohde) method

O=[N+]([O-])[O-].O=[N+]([O-])[O-].[Zn+2] [nitric acid, zinc salt] + O
Details	mass density [kg/m3]	speed of sound [m/s]	surface tension liquid-gas [mN/m]	viscosity [mPa·s]
308.15 K, m1 = 4.075	–	1708.9	–	–
308.15 K, m1 = 4.817	–	1733.1	–	–
308.15 K, m1 = 5.224	–	1740.5	–	–
308.15 K, m1 = 5.797	–	1751.6	–	–
308.15 K, m1 = 6.34	–	1757.7	–	–
308.15 K, m1 = 6.89	–	1762.2	–	–
308.15 K, m1 = 7.349	–	1762.6	–	–
308.25 K, m1 = 2.344	1303.9	–	–	–
308.3 K, m1 = 1.258	1170.8	–	–	–
308.35 K, m1 = 1.113	1151.6	–	–	–
308.35 K, m1 = 6.89	1699.9	–	–	–
308.6 K, m1 = 1.551	1208.2	–	–	–
308.75 K, m1 = 0.0875	1006.4	–	–	–
308.75 K, m1 = 5.8	1624.4	–	–	–
308.85 K, m1 = 2.91	1366.3	–	–	–
309.05 K, m1 = 0.6111	1082.4	–	–	–
309.1 K, m1 = 6.34	1662.7	–	–	–
309.15 K, m1 = 0.2466	1029.9	–	–	–
309.35 K, m1 = 4.817	1546.9	–	–	–
309.4 K, m1 = 0.3388	1043.2	–	–	–
309.45 K, m1 = 0.6405	1086.3	–	–	–
309.45 K, m1 = 2.145	1280.1	–	–	–
309.55 K, m1 = 3.472	1423.6	–	–	–
309.55 K, m1 = 5.224	1579.9	–	–	–
310.1 K, m1 = 2.29	1296.5	–	–	–
310.35 K, m1 = 2.344	1302.6	–	–	–
310.45 K, m1 = 1.258	1169.6	–	–	–
310.45 K, m1 = 2.292	1296.6	–	–	–
310.45 K, m1 = 5.8	1622.9	–	–	–
310.7 K, m1 = 1.113	1150.3	–	–	–
310.7 K, m1 = 2.91	1364.9	–	–	–
310.75 K, m1 = 0.1329	1012.3	–	–	–
310.75 K, m1 = 6.34	1661.1	–	–	–
310.8 K, m1 = 7.764	1749.7	–	–	–
310.85 K, m1 = 1.551	1206.9	–	–	–
310.95 K, m1 = 7.349	1725.6	–	–	–
311.15 K, m1 = 4.817	1545.4	–	–	–
311.25 K, m1 = 5.224	1578.2	–	–	–
311.35 K, m1 = 0.6111	1081.4	–	–	–
311.35 K, m1 = 3.472	1422.1	–	–	–
311.35 K, m1 = 4.075	1480.4	–	–	–
311.4 K, m1 = 2.145	1278.8	–	–	–
311.5 K, m1 = 0.0875	1005.4	–	–	–
311.7 K, m1 = 6.89	1696.5	–	–	–
311.85 K, m1 = 0.2466	1028.8	–	–	–
311.85 K, m1 = 0.3388	1042.2	–	–	–
311.9 K, m1 = 0.6405	1085.1	–	–	–
311.9 K, m1 = 1.906	1250.1	–	–	–
312 K, m1 = 2.29	1295.1	–	–	–
312.25 K, m1 = 5.8	1621	–	–	–
312.35 K, m1 = 2.292	1295.2	–	–	–
312.55 K, m1 = 6.34	1659.2	–	–	–
312.7 K, m1 = 1.258	1168.4	–	–	–
312.85 K, m1 = 1.113	1149.1	–	–	–
312.95 K, m1 = 1.551	1205.6	–	–	–
313.05 K, m1 = 5.224	1576.6	–	–	–
313.15 K, m1 = 0.0875	–	1533.4	–	–
313.15 K, m1 = 0.1329	–	1531.7	–	0.691
313.15 K, m1 = 0.2263	–	–	70.59	–
313.15 K, m1 = 0.2466	–	1535.7	–	0.716
313.15 K, m1 = 0.334	–	–	70.83	–
313.15 K, m1 = 0.3388	–	–	–	0.739
313.15 K, m1 = 0.6111	–	–	–	0.805
313.15 K, m1 = 0.6198	–	–	71.5	–
313.15 K, m1 = 0.6405	–	–	–	0.813
313.15 K, m1 = 0.8228	–	–	72.2	–
313.15 K, m1 = 1.113	–	–	–	0.952
313.15 K, m1 = 1.258	–	–	–	1.01
313.15 K, m1 = 1.259	–	–	73.37	–
313.15 K, m1 = 1.549	–	–	74.1	–
313.15 K, m1 = 1.551	–	–	–	1.106
313.15 K, m1 = 1.818	–	–	74.61	–
313.15 K, m1 = 1.906	–	–	–	1.277
313.15 K, m1 = 2.145	–	–	–	1.408
313.15 K, m1 = 2.222	–	–	76.05	–
313.15 K, m1 = 2.29	–	–	–	1.475
313.15 K, m1 = 2.344	–	–	–	1.495
313.15 K, m1 = 2.526	–	–	77.02	–
313.15 K, m1 = 2.721	–	–	77.55	–
313.15 K, m1 = 2.91	–	–	–	1.843
313.15 K, m1 = 3.426	–	–	79.09	–
313.15 K, m1 = 3.472	–	–	–	2.305
313.15 K, m1 = 4.011	–	–	80.79	–
313.15 K, m1 = 4.075	–	–	–	2.868
313.15 K, m1 = 4.231	–	–	81.05	–
313.15 K, m1 = 4.817	–	–	–	3.774
313.15 K, m1 = 5.133	–	–	83.04	–
313.15 K, m1 = 5.224	–	–	–	4.322
313.15 K, m1 = 5.797	–	–	–	5.432
313.15 K, m1 = 6.245	–	–	84.64	–
313.15 K, m1 = 6.34	–	–	–	6.509
313.15 K, m1 = 6.89	–	–	–	7.997
313.15 K, m1 = 7.349	–	–	–	9.383
